Experiments:
Conditions in all cases: averaged IC50
[1] = molecular target: His-tagged recombinant human AXL cytoplasmic domain (Homo sapiens (Human), UniProt P30530); assay: AXL Enzyme Assay (LanthaScreen Eu Kinase Binding, TR-FRET)
Procedure: Compounds of Formula I were screened for their ability to inhibit AXL kinase using Invitrogen's LanthaScreen™ Eu Kinase Binding technology. […] After a 60-minute incubation at 22° C., the reaction was measured using a PerkinElmer EnVision multimode plate reader via TR-FRET dual wavelength detection, and the percent of control (POC) was calculated using a ratiometric emission factor. […] The POC values are fit to a 4 parameter logistic curve and the IC50 value is point where the curve crosses 50 POC.

[2] = molecular target: GST-tagged recombinant human TYRO3 kinase domain (Homo sapiens (Human), UniProt Q06418); assay: TYRO3 Enzyme Assay (LanthaScreen Eu Kinase Binding, TR-FRET)
Procedure, shortened: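 LanthaScreen Eu binding (tracer displacement) format read by TR-FRET after 60 min at 22 °C. Emission ratio converted to percent of control; IC50 taken where a 4-parameter logistic fit crosses 50 POC.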

[3] = molecular target: His-tagged recombinant human MER cytoplasmic domain (Homo sapiens (Human), UniProt Q12866); assay: MER Enzyme Assay (LanthaScreen Eu Kinase Binding, TR-FRET)
Procedure, shortened: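 LanthaScreen Eu kinase binding (tracer displacement) assay with His-tagged human MER cytoplasmic domain, 60 min incubation at 22 °C. TR-FRET dual-wavelength emission ratio converted to percent of control; IC50 is where the 4-parameter logistic fit crosses 50 POC.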

His-tagged recombinant human AXL cytoplasmic domain, sequence (P30530 473-894): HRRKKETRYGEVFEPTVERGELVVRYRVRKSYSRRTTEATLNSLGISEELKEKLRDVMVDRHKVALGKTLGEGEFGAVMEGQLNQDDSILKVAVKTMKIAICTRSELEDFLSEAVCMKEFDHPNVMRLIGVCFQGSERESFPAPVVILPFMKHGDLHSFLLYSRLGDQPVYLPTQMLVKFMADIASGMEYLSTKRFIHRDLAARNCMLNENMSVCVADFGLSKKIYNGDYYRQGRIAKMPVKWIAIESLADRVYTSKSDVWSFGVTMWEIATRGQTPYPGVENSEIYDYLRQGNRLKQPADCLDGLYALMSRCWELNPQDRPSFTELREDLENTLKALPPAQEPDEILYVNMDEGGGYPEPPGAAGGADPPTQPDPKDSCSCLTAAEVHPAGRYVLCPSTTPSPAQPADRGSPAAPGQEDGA
His-tagged recombinant human MER cytoplasmic domain, sequence (Q12866 527-999): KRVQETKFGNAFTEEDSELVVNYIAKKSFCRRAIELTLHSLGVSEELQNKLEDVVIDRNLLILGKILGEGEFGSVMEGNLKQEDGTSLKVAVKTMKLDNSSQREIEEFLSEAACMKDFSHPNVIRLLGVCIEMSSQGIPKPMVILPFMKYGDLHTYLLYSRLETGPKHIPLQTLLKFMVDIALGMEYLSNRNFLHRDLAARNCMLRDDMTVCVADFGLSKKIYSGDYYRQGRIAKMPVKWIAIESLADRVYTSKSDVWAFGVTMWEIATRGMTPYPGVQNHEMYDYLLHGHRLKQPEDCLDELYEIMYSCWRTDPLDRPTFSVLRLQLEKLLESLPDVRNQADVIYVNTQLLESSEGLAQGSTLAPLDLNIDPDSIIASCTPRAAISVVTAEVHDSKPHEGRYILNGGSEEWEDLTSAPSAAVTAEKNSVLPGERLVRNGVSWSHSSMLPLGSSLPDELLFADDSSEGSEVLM
GST-tagged recombinant human TYRO3 kinase domain, sequence (Q06418 518-790): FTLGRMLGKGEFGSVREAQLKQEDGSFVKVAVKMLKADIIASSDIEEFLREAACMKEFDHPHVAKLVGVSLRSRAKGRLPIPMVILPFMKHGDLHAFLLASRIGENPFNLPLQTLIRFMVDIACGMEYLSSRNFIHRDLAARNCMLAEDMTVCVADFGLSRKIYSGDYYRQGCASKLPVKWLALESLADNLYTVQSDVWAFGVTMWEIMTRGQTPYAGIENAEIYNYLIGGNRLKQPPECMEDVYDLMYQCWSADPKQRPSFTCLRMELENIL

IC50 [1] [nM] | IC50 [2] [nM] | IC50 [3] [nM] | Compound
< 10 | 10 to 100 | < 10 | CCNc1cc2c(cn1)c(-c1cnn(C)c1)nn2[C@H]1CC[C@@H](Oc2nccc(C)c2F)CC1 [Example 346, N-ethyl-1-((1s,4s)-4-((3-fluoro-4-methylpyridin-2-yl)oxy)cyclohexyl)-3-(1-methyl-1H-pyrazol-4-yl)-1H-pyrazolo[4,3-c]pyridin-6-amine]
< 10 | 10 to 100 | < 10 | CCNc1cc2c(cn1)c(-c1cnn(C)c1)nn2[C@H]1CC[C@@H](Oc2cccc(C(F)(F)F)c2F)CC1 [Example 498, N-ethyl-1-((1s,4s)-4-(2-fluoro-3-(trifluoromethyl)phenoxy)cyclohexyl)-3-(1-methyl-1H-pyrazol-4-yl)-1H-pyrazolo[4,3-c]pyridin-6-amine]
< 10 | < 10 | < 10 | CCNc1cc2c(cn1)c(C1CCN(C)CC1)nn2[C@H]1CC[C@@H](Oc2cn[nH]c2C(F)(F)F)CC1 [Example 313, N-ethyl-3-(1-methylpiperidin-4-yl)-1-((1s,4s)-4-((5-(trifluoromethyl)-1H-pyrazol-4-yl)oxy)cyclohexyl)-1H-pyrazolo[4,3-c]pyridin-6-amine]
< 10 |  | < 10 | CNc1cc2c(cn1)c(-c1cnn(C)c1)nn2[C@H]1CC[C@@H](Oc2nccnc2C)CC1 [Example 150, N-methyl-3-(1-methyl-1H-pyrazol-4-yl)-1-((1s,4s)-4-((3-methylpyrazin-2-yl)oxy)cyclohexyl)-1H-pyrazolo[4,3-c]pyridin-6-amine]
< 10 |  | < 10 | CNc1cc2c(cn1)c(-c1cnn(C)c1)nn2[C@H]1CC[C@@H](Oc2ccccc2)CC1 [Example 371, N-methyl-3-(1-methyl-1H-pyrazol-4-yl)-1-((1s,4s)-4-phenoxycyclohexyl)-1H-pyrazolo[4,3-c]pyridin-6-amine]
< 10 |  | < 10 | CNc1cc2c(cn1)c(-c1cnn(C(C)(C)C#N)c1)nn2[C@H]1CC[C@@H](Oc2ccccc2F)CC1 [Example 394, 2-(4-(1-((1s,4s)-4-(2-fluorophenoxy)cyclohexyl)-6-(methylamino)-1H-pyrazolo[4,3-c]pyridin-3-yl)-1H-pyrazol-1-yl)-2-methylpropanenitrile]
< 10 |  | < 10 | CNc1cc2c(cn1)c(-c1cnn(C)c1)nn2[C@H]1CC[C@@H](Oc2ccccc2Cl)CC1 [Example 360, 1-((1s,4s)-4-(2-chlorophenoxy)cyclohexyl)-N-methyl-3-(1-methyl-1H-pyrazol-4-yl)-1H-pyrazolo[4,3-c]pyridin-6-amine]
< 10 |  | < 10 | CCNc1cc2c(cn1)c(-c1cn(C)c(=O)cn1)nn2[C@H]1CC[C@@H](Oc2nccc(C(F)(F)F)c2F)CC1 [Example 257, 5-(6-(ethylamino)-1-((1s,4s)-4-((3-fluoro-4-(trifluoromethyl)pyridin-2-yl)oxy)cyclohexyl)-1H-pyrazolo[4,3-c]pyridin-3-yl)-1-methylpyrazin-2(1H)-one]
< 10 |  | < 10 | CCNc1cc2c(cn1)c(C1CCOC1)nn2[C@H]1CC[C@@H](Oc2nccc(C(F)(F)F)c2F)CC1 (some centres unmarked) [Example 323, N-ethyl-1-((1s,4s)-4-((3-fluoro-4-(trifluoromethyl)pyridin-2-yl)oxy)cyclohexyl)-3-(tetrahydrofuran-3-yl)-1H-pyrazolo[4,3-c]pyridin-6-amine]
< 10 |  | < 10 | CCNc1cc2c(cn1)c(-c1cnn(CC(=O)N(C)C)c1)nn2[C@H]1CC[C@@H](Oc2nccc(C(F)(F)F)c2F)CC1 [Example 259, 2-(4-(6-(ethylamino)-1-((1s,4s)-4-((3-fluoro-4-(trifluoromethyl)pyridin-2-yl)oxy)cyclohexyl)-1H-pyrazolo[4,3-c]pyridin-3-yl)-1H-pyrazol-1-yl)-N,N-dimethylacetamide]
< 10 |  | < 10 | CNc1cc2c(cn1)c(-c1ccc3c(c1)CNC3=O)nn2[C@H]1CC[C@@H](Oc2cnn(C)c2C(F)(F)F)CC1 [Example 266, 5-(1-((1s,4s)-4-((1-methyl-5-(trifluoromethyl)-1H-pyrazol-4-yl)oxy)cyclohexyl)-6-(methylamino)-1H-pyrazolo[4,3-c]pyridin-3-yl)isoindolin-1-one]
< 10 |  | < 10 | CNc1cc2c(cn1)c(-c1cnn(C)c1)nn2[C@H]1CC[C@@H](Oc2cccc(F)c2F)CC1 [Example 357, 1-((1s,4s)-4-(2,3-difluorophenoxy)cyclohexyl)-N-methyl-3-(1-methyl-1H-pyrazol-4-yl)-1H-pyrazolo[4,3-c]pyridin-6-amine]
< 10 |  | < 10 | CNc1cc2c(cn1)c(-c1cnn(C)c1)nn2[C@H]1CC[C@@H](Oc2cccc(F)c2)CC1 [Example 354, 1-((1s,4s)-4-(3-fluorophenoxy)cyclohexyl)-N-methyl-3-(1-methyl-1H-pyrazol-4-yl)-1H-pyrazolo[4,3-c]pyridin-6-amine]
1000 to 10000 | 1000 to 10000 |  | CCNc1cc2c(cn1)c(-c1cnn(C)c1)nn2[C@H]1CC[C@@H](Oc2cccn(C)c2=O)CC1 [Example 109, 3-(((1s,4s)-4-(6-(ethylamino)-3-(1-methyl-1H-pyrazol-4-yl)-1H-pyrazolo[4,3-c]pyridin-1-yl)cyclohexyl)oxy)-1-methylpyridin-2(1H)-one]
< 10 |  | < 10 | CNc1cc2c(cn1)c(-c1cnn(C)c1)nn2[C@H]1CC[C@@H](Oc2ccccc2F)CC1 [Example 353, 1-((1s,4s)-4-(2-fluorophenoxy)cyclohexyl)-N-methyl-3-(1-methyl-1H-pyrazol-4-yl)-1H-pyrazolo[4,3-c]pyridin-6-amine]
1000 to 10000 | 1000 to 10000 |  | CCNc1cc2c(cn1)c(-c1ccn(CCN3CCOCC3)n1)nn2[C@H]1CC[C@@H](Oc2ccc(=O)n(C)n2)CC1 [Example 101, 6-(((1s,4s)-4-(6-(ethylamino)-3-(1-(2-morpholinoethyl)-1H-pyrazol-3-yl)-1H-pyrazolo[4,3-c]pyridin-1-yl)cyclohexyl)oxy)-2-methylpyridazin-3(2H)-one]
< 10 |  | < 10 | CCc1ncccc1O[C@H]1CC[C@@H](n2nc(-c3cnn(C)c3)c3cnc(NC)cc32)CC1 [Example 145, 1-((1s,4s)-4-((2-ethylpyridin-3-yl)oxy)cyclohexyl)-N-methyl-3-(1-methyl-1H-pyrazol-4-yl)-1H-pyrazolo[4,3-c]pyridin-6-amine]
< 10 |  | < 10 | CNc1cc2c(cn1)c(-c1cnn(C)c1)nn2[C@H]1CC[C@@H](Oc2cccnc2C)CC1 [Example 135, N-methyl-3-(1-methyl-1H-pyrazol-4-yl)-1-((1s,4s)-4-((2-methylpyridin-3-yl)oxy)cyclohexyl)-1H-pyrazolo[4,3-c]pyridin-6-amine]
< 10 |  | < 10 | CNc1cc2c(cn1)c(-c1cnn(C(C)(C)CO)c1)nn2[C@H]1CC[C@@H](Oc2nccnc2C)CC1 [Example 213, 2-methyl-2-(4-(6-(methylamino)-1-((1s,4s)-4-((3-methylpyrazin-2-yl)oxy)cyclohexyl)-1H-pyrazolo[4,3-c]pyridin-3-yl)-1H-pyrazol-1-yl)propan-1-ol]
< 10 |  | < 10 | CNc1cc2c(cn1)c(-c1cnn(C)c1)nn2[C@H]1CC[C@@H](Oc2ccc(F)cc2)CC1 [Example 355, 1-((1s,4s)-4-(4-fluorophenoxy)cyclohexyl)-N-methyl-3-(1-methyl-1H-pyrazol-4-yl)-1H-pyrazolo[4,3-c]pyridin-6-amine]
< 10 |  | < 10 | CNc1cc2c(cn1)n(-c1cnn(C)c1)nc2[C@H]1CC[C@@H](Oc2ccccc2F)CC1 [Example 479, 3-((1s,4s)-4-(2-fluorophenoxy)cyclohexyl)-N-methyl-1-(1-methyl-1H-pyrazol-4-yl)-1H-pyrazolo[3,4-c]pyridin-5-amine]
< 10 |  | < 10 | CNc1cc2c(cn1)c(-c1cnn(C(C)(C)C#N)c1)nn2[C@H]1CC[C@@H](Oc2cccnc2C)CC1 [Example 202, 2-methyl-2-(4-(6-(methylamino)-1-((1s,4s)-4-((2-methylpyridin-3-yl)oxy)cyclohexyl)-1H-pyrazolo[4,3-c]pyridin-3-yl)-1H-pyrazol-1-yl)propanenitrile]
< 10 |  | < 10 | CNc1cc2c(cn1)c(-c1ccc(CN3CCN(C)CC3)cc1)nn2[C@H]1CC[C@@H](Oc2cnn(C)c2)CC1 [Example 232, N-methyl-1-((1s,4s)-4-((1-methyl-1H-pyrazol-4-yl)oxy)cyclohexyl)-3-(4-((4-methylpiperazin-1-yl)methyl)phenyl)-1H-pyrazolo[4,3-c]pyridin-6-amine]
1000 to 10000 | 1000 to 10000 |  | CCNc1cc2c(cn1)c(-c1ccc3c(c1)CN(C)S3(=O)=O)nn2[C@H]1CC[C@@H](Oc2cnn(C)c2C(F)(F)F)CC1 [Example 224, 5-(6-(ethylamino)-1-((1s,4s)-4-((1-methyl-5-(trifluoromethyl)-1H-pyrazol-4-yl)oxy)cyclohexyl)-1H-pyrazolo[4,3-c]pyridin-3-yl)-2-methyl-2,3-dihydrobenzo[d]isothiazole 1,1-dioxide]
< 10 |  | < 10 | CCNc1cc2c(cn1)c(-c1cnc(C)nc1)nn2[C@H]1CC[C@@H](Oc2nccc(C(F)(F)F)c2F)CC1 [Example 268, N-ethyl-1-((1s,4s)-4-((3-fluoro-4-(trifluoromethyl)pyridin-2-yl)oxy)cyclohexyl)-3-(2-methylpyrimidin-5-yl)-1H-pyrazolo[4,3-c]pyridin-6-amine]

— US11247990B1, “Bicyclic fused pyridine compounds as inhibitors of TAM kinases” (ARRAY BIOPHARMA INC., priority 2017, dated 2022)
